# Results: patent US20250332173A1, “COMPOUNDS AND METHODS FOR MODULATING NUCLEIC ACID SPLICING” (REMIX THERAPEUTICS INC., priority 2021, published 2025)
# pIC50: −log10 of the molar value. Where two headings read alike, the source gives them in different places.
# What was measured:
# Format in all cases: cell-based, human
# MYB mRNA = experiment: RT-qPCR splicing assay, MYB canonical junction (CJ) and alternative junction (AJ) mRNA; conditions: Homo sapiens; for AC50: increase in MYB alternative junction (AJ) mRNA, read-out: MYB AJ AC50
# Outline: (§1)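 24 h treatment, 37 °C/5% CO2; A673 or K562; 11-pt 3-fold series, top 10 uM final; DMSO ≤0.25%. Cell lysis with DNase I, then 1-step RT-qPCR. Housekeeping normalization: PPIA (A673), GAPDH or GUSB (K562).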
# HTT mRNA = experiment: RT-qPCR splicing assay, HTT canonical junction (CJ) and alternative junction (AJ) mRNA; conditions: Homo sapiens; for AC50: increase in HTT alternative junction (AJ) mRNA, read-out: HTT AJ AC50
# Outline: as §1
# Target C = experiment: HiBiT protein abundance assay, Target C (Promega Nano-Glo HiBiT Lytic Detection System, knock-in K562 cell line); conditions: Homo sapiens, K562, 24 h, HiBiT K562 cell line, 24 hours, top dose 10 μM; read-out: Effect on protein abundance, Target C (IC50 category)
# Outline: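 Knock-in K562 cells carrying HiBiT-tagged Target C, 10,000 per well, treated 24 h at 37 °C with 10-point threefold dilutions (top 10 μM final, ≤0.25% DMSO). Lytic HiBiT luminescence read; response normalised to unmodified K562 and DMSO controls, four-parameter fit interpolated at 50% for IC50.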
# [1] = canonical junction qPCR panel, Table 5, read-out: MYB (decrease in CJ mRNA levels, IC50)
# [2] = decrease in MYB canonical junction (CJ) mRNA, RT-qPCR, read-out: MYB CJ IC50
# [3] = decrease in HTT canonical junction (CJ) mRNA, RT-qPCR, read-out: HTT CJ IC50
# [4] = canonical junction qPCR panel, Table 5, read-out: HTT (decrease in CJ mRNA levels, IC50)
Compound,pIC50 (MYB mRNA; [1]),pIC50 (MYB mRNA; [2]),pIC50 (HTT mRNA; [3]),pIC50 (HTT mRNA; [4]),pIC50 (Target C),AC50 (MYB mRNA; RT-qPCR) [nM],AC50 (HTT mRNA; RT-qPCR) [nM]
Cc1c(O)c(-c2ncc3c(=O)n(C4CCN(C)CC4)ccc3n2)cc2cn(C)nc12 [Compound 1304],6.00 to 7.00,6.00 to 7.00,5.00 to 6.00,6.00 to 7.00,5.00 to 6.00,100 to 1000,100 to 1000
"Cc1c(O)c(-c2ncc3c(=O)n(C4CNC4)ccc3n2)cc2cn(C)nc12 [Compound 1305, 6-(azetidin-3-yl)-2-(6-hydroxy-2,7-dimethyl-indazol-5-yl)pyrido[4,3-d]pyrimidin-5-one]",5.00 to 6.00,5.00 to 6.00,< 5.00,< 5.00,< 5.00,1000 to 10000,> 10000
"Cc1c(O)c(-c2ncc3c(=O)n([C@@H]4C[C@H]5CC[C@@H](C4)N5)ccc3n2)cc2cn(C)nc12 [Compound 1429, 6-[(1S,5R)-8-azabicyclo[3.2.1]octan-3-yl]-2-(6-hydroxy-2,7-dimethyl-indazol-5-yl)pyrido[4,3-d]pyrimidin-5-one]",> 7.00,> 7.00,6.00 to 7.00,6.00 to 7.00,6.00 to 7.00,< 100,100 to 1000
"Cc1c(O)c(-c2ncc3c(=O)n([C@H]4C[C@@H](N)C4)ccc3n2)cc2cn(C)nc12 [Compound 1431, 6-((1s,3s)-3-aminocyclobutyl)-2-(6-hydroxy-2,7-dimethyl-2H-indazol-5-yl)pyrido[4,3-d]pyrimidin-5(6H)-one]",5.00 to 6.00,5.00 to 6.00,5.00 to 6.00,5.00 to 6.00,5.00 to 6.00,1000 to 10000,1000 to 10000
"Cc1c(O)c(-c2ncc3c(=O)n([C@H]4C[C@H](N)C4)ccc3n2)cc2cn(C)nc12 [Compound 1432, 6-((1r,3r)-3-aminocyclobutyl)-2-(6-hydroxy-2,7-dimethyl-2H-indazol-5-yl)pyrido[4,3-d]pyrimidin-5(6H)-one]",6.00 to 7.00,6.00 to 7.00,5.00 to 6.00,5.00 to 6.00,5.00 to 6.00,100 to 1000,1000 to 10000
"Cc1cn2nc(-c3ccc4c(=O)n([C@H]5CCNC5)ccc4n3)cc(C)c2n1 [Compound 1437, 2-(2,8-dimethylimidazo[1,2-b]pyridazin-6-yl)-6-[(3S)-pyrrolidin-3-yl]-1,6-aphthyridin-5-one]",6.00 to 7.00,6.00 to 7.00,5.00 to 6.00,5.00 to 6.00,5.00 to 6.00,100 to 1000,1000 to 10000

# Further lines, with some results ahead:
pIC50 (MYB mRNA; [1]),pIC50 (MYB mRNA; [2]),pIC50 (HTT mRNA; [3]),pIC50 (HTT mRNA; [4]),pIC50 (Target C),Compound,AC50 (MYB mRNA; RT-qPCR) [nM],AC50 (HTT mRNA; RT-qPCR) [nM]
< 5.00,< 5.00,< 5.00,< 5.00,< 5.00,Cc1cn2cc(-c3ccc4c(=O)n(C5CCNC5)ccc4n3)c(O)c(C)c2n1 (centres unmarked) [Compound 1302],> 10000,> 10000
6.00 to 7.00,> 7.00,6.00 to 7.00,6.00 to 7.00,6.00 to 7.00,Cc1c(O)c(-c2ncc3c(=O)n(N4CCNCC4)ccc3n2)cc2cn(C)nc12 [Compound 1303],100 to 1000,100 to 1000
6.00 to 7.00,6.00 to 7.00,< 5.00,5.00 to 6.00,5.00 to 6.00,Cc1c(O)c(-c2ncc3c(=O)n(C45CCC(N)(CC4)C5)ccc3n2)cc2cn(C)nc12 [Compound 1428],100 to 1000,1000 to 10000
6.00 to 7.00,6.00 to 7.00,5.00 to 6.00,6.00 to 7.00,5.00 to 6.00,"Cc1c(O)c(-c2ncc3c(=O)n([C@@H]4CCN[C@H](C)C4)ccc3n2)cc2cn(C)nc12 [Compound 1434, 2-(6-hydroxy-2,7-dimethyl-indazol-5-yl)-6-(2-methyl-4-piperidyl)pyrido[4,3-d]pyrimidin-5-one]",100 to 1000,100 to 1000
> 7.00,> 7.00,5.00 to 6.00,5.00 to 6.00,6.00 to 7.00,Cc1c(O)c(-c2ncc3c(=O)n([C@H]4CCNC(C)(C)C4)ccc3n2)cc2cn(C)nc12 [Compound 1436],< 100,1000 to 10000
